Source: PMC5358098 (ACS chemical neuroscience, 2016)
Where two headings read alike, the source gives them in different places.

Experiments:
[1] = tested on: hCB1R; experiment: Operational model bias analysis, HEK293A cells; format: cell-based, human; conditions: HEK293A; for ΔΔlog R β-arrestin1/cAMP / ΔΔlog R β-arrestin1/pPLCβ3: reference 2-AG + GAT100
[2] = tested on: CB1R
[3] = biological target: T1, CB1R (Homo sapiens, UniProt P21554); format: cell-based; conditions: HEK293A, 30 min
[4] = biological target: T1, CB1R; format: cell-based; conditions: Neuro2a, 30 min
[5] = biological target: T1, CB1R; format: cell-based; conditions: HEK293A, 10 min
[6] = biological target: T1, CB1R; experiment: cell-based; format: cell-based
[7] = biological target: T2, CB1R (Mus musculus, UniProt P47746); format: cell-based; conditions: Neuro2a, 10 min
[8] = biological target: T2, CB1R; experiment: Operational model bias analysis, STHdh^Q7/Q7 cells; conditions: STHdh^Q7/Q7
[9] = biological target: T1, CB1R; experiment: cell-based; format: cell-based; remark: listed apart in the source
[10] = biological target: T2, CB1R; conditions: STHdh^Q7/Q7; 1 μM + 500 nM CP55,940
[11] = biological target: T2, CB1R; experiment: Operational model bias analysis, Neuro2a cells; format: cell-based; conditions: for ΔΔlog R β-arrestin1/pPLCβ3: reference 2-AG + GAT100
[12] = tested on: CB1R; format: cell-based; conditions: mean of data for the pathway (Table 2), all cells and orthosteric ligands
[13] = tested on: CB1R; conditions: cited from earlier work
[14] = biological target: T1, CB1R; experiment: cell-based
[15] = biological target: T2, CB1R; format: cell-based; conditions: Neuro2a, 10 min; remark: listed apart in the source
[16] = tested on: CB1R; format: cell-based; conditions: mean of data for the pathway (Table 3), all cells and orthosteric ligands
[17] = biological target: T1, CB1R; experiment: [3H]SR141716A equilibrium binding, hCB1R CHO cell membranes
[18] = 500 nM 2-AG + 1 nM-10 μM allosteric modulator
[19] = 500 nM AEA + 1 nM-10 μM allosteric modulator
[20] = 500 nM CP55,940 + 1 nM-10 μM allosteric modulator

T2 sequence (P47746 whole entry): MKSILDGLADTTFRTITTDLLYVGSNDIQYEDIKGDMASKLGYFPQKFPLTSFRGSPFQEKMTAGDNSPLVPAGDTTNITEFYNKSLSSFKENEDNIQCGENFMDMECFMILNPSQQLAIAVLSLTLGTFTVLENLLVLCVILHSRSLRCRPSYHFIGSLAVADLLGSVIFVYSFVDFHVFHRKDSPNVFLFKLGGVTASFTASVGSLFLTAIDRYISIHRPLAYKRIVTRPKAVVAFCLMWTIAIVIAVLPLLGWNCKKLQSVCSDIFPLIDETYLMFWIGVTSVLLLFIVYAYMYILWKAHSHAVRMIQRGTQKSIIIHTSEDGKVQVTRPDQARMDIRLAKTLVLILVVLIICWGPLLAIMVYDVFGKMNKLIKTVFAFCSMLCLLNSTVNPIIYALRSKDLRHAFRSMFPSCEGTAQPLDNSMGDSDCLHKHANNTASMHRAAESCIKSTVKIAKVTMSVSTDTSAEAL
T1 sequence (P21554 whole entry): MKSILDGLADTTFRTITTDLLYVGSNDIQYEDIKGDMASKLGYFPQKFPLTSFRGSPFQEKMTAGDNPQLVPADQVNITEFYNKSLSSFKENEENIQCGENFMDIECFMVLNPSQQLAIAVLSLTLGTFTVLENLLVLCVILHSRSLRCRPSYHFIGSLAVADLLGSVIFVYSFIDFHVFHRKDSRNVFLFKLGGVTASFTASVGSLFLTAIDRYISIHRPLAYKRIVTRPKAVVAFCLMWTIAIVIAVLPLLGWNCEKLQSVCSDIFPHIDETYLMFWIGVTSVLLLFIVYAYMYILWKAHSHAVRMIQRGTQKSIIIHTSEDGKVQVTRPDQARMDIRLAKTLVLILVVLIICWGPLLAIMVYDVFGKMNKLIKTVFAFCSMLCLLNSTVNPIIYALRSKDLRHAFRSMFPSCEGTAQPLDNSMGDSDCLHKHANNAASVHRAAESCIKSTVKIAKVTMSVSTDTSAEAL

SMILES: CCc1c(C(=O)NCCc2ccc(N3CCCCC3)cc2)[nH]c2ccc(N=C=S)cc12 [GAT100, 3-ethyl-5-isothiocyanato-N-(4-(piperidin-1-yl)phenethyl)-1H-indole-2-carboxamide]
- BF β-arrestin1/cAMP [1, 18]: 1.0
- BF β-arrestin1/pERK1/2 [1, 18]: 1.0
- BF β-arrestin1/pPLCβ3 [1, 18]: 1.0
- ΔΔlog R β-arrestin1/cAMP [1, 18]: 0.0 ± 0.1
- ΔΔlog R β-arrestin1/pPLCβ3 [1, 18]: 0.0
- BF β-arrestin1/cAMP [1, 19]: 0.8
- BF β-arrestin1/pERK1/2 [1, 19]: 0.3
- BF β-arrestin1/pPLCβ3 [1, 19]: 0.1
- ΔΔlog R β-arrestin1/cAMP [1, 19]: –0.1 ± 0.1
- ΔΔlog R β-arrestin1/pPLCβ3 [1, 19]: –1.2 ± 0.8
- BF β-arrestin1/cAMP [1, 20]: 1.3
- BF β-arrestin1/pERK1/2 [1, 20]: 0.6
- BF β-arrestin1/pPLCβ3 [1, 20]: 0.6
- ΔΔlog R β-arrestin1/cAMP [1, 20]: 0.1 ± 0.1
- ΔΔlog R β-arrestin1/pPLCβ3 [1, 20]: –0.2 ± 0.1
- Emax, 2-AG (probe dependence summary) ([2]; mean of data for 2-AG (Tables 1-4)): 0.31 ± 0.02
- Emax, AEA (probe dependence summary) ([2]; mean of data for AEA (Tables 1-4)): 0.36 ± 0.03
- Emax, CP55,940 (probe dependence summary) ([2]; mean of data for CP55,940 (Tables 1-4)): 0.33 ± 0.02
- Emax, HEK293A (cell dependence summary) ([2]; mean of data for HEK293A (Tables 1-3)): 0.34 ± 0.01
- Emax, Neuro2a (cell dependence summary) ([2]; mean of data for Neuro2a (Tables 1-3)): 0.32 ± 0.01
- Emax, STHdh^Q7/Q7 (cell dependence summary) ([2]; mean of data for STHdh^Q7/Q7 (Tables 1-3)): 0.34 ± 0.02
- Emax (BRETEff), 2-AG ([3]; 1 nM-10 μM 2-AG + 1 μM NAM): 0.29 ± 0.01
- Emax (BRETEff), AEA ([3]; 1 nM-10 μM AEA + 1 μM NAM): 0.37 ± 0.03
- Emax (BRETEff), CP55,940 ([3]; 1 nM-10 μM CP55,940 + 1 μM NAM): 0.30 ± 0.04
- Emax (BRETEff), 2-AG ([4]; 1 nM-10 μM 2-AG + 1 μM NAM): 0.25 ± 0.03
- Emax (BRETEff), AEA ([4]; 1 nM-10 μM AEA + 1 μM NAM): 0.29 ± 0.02
- Emax (BRETEff), CP55,940 ([4]; 1 nM-10 μM CP55,940 + 1 μM NAM): 0.34 ± 0.02
- Emax pERK1/2/Total ERK1/2, 2-AG ([5]; 1 nM-10 μM 2-AG + 1 μM NAM): 0.33 ± 0.02
- Emax pERK1/2/Total ERK1/2, AEA ([5]; 1 nM-10 μM AEA + 1 μM NAM): 0.31 ± 0.02
- Emax pERK1/2/Total ERK1/2, CP55,940 ([5]; 1 nM-10 μM CP55,940 + 1 μM NAM): 0.29 ± 0.02
- Emax pPLCβ3/Total PLCβ3, 2-AG ([6]; HEK293A, 1 nM-10 μM 2-AG + 1 μM NAM, 10 min): 0.39 ± 0.02
- Emax pPLCβ3/Total PLCβ3, AEA ([6]; HEK293A, 1 nM-10 μM AEA + 1 μM NAM, 10 min): 0.36 ± 0.01
- Emax pPLCβ3/Total PLCβ3, CP55,940 ([6]; HEK293A, 1 nM-10 μM CP55,940 + 1 μM NAM, 10 min): 0.39 ± 0.01
- IC50 ([6]; IC50, PLCβ3 phosphorylation, CP55,940): 76.6 nM
- Emax pPLCβ3/Total PLCβ3, 2-AG ([7]; 1 nM-10 μM 2-AG + 1 μM NAM): 0.34 ± 0.02
- Emax pPLCβ3/Total PLCβ3, AEA ([7]; 1 nM-10 μM AEA + 1 μM NAM): 0.37 ± 0.02
- Emax pPLCβ3/Total PLCβ3, CP55,940 ([7]; 1 nM-10 μM CP55,940 + 1 μM NAM): 0.39 ± 0.02
- BF β-arrestin1/pERK1/2 [8, 18]: 1.0
- BF β-arrestin1/pPLCβ3 [8, 18]: 1.0
- BF β-arrestin1/pERK1/2 [8, 19]: 1.3
- BF β-arrestin1/pPLCβ3 [8, 19]: 7.9
- BF β-arrestin1/pERK1/2 [8, 20]: 0.6
- BF β-arrestin1/pPLCβ3 [8, 20]: 5.0
- IC50 [9]: 741 nM
- effect on cAMP levels in the absence of orthosteric agonists (inverse agonism) ([9]; HEK-CRE, 10 μM forskolin + 1 nM to 10 μM compound alone, 4 h): did not affect cAMP accumulation
- IC50 ([9]; IC50, cAMP, CP55,940): 834 nM
- Emax, cAMP (pathway ligand bias summary) ([9]; mean of data for the pathway (Table 4), cAMP Emax divided by 100): 0.16 ± 0.04
- effect on CP55,940-induced CB1R internalization (fraction of CB1R at the plasma membrane) [10]: reversed this effect
- BF β-arrestin1/pERK1/2 [11, 18]: 1.0
- BF β-arrestin1/pPLCβ3 [11, 18]: 1.0
- ΔΔlog R β-arrestin1/pPLCβ3 [11, 18]: 0.0 ± 0.1
- BF β-arrestin1/pERK1/2 [11, 19]: 7.9
- BF β-arrestin1/pPLCβ3 [11, 19]: 15.8
- ΔΔlog R β-arrestin1/pPLCβ3 [11, 19]: 1.2 ± 0.1
- BF β-arrestin1/pERK1/2 [11, 20]: 10.0
- BF β-arrestin1/pPLCβ3 [11, 20]: 3.2
- ΔΔlog R β-arrestin1/pPLCβ3 [11, 20]: 0.5 ± 0.2
- Emax, PLCβ3 (pathway ligand bias summary) [12]: 0.38 ± 0.01
- effect on CP55,940 equilibrium binding by CB1R [13]: increase CP55,940 equilibrium binding
- IC50 [14]: 35.8 nM
- Emax, β-arrestin1 (pathway ligand bias summary) ([14]; mean of data for the pathway (Table 1), all cells and orthosteric ligands): 0.30 ± 0.01
- Emax pERK1/2/Total ERK1/2, 2-AG ([15]; 1 nM-10 μM 2-AG + 1 μM NAM): 0.31 ± 0.02
- Emax pERK1/2/Total ERK1/2, AEA ([15]; 1 nM-10 μM AEA + 1 μM NAM): 0.28 ± 0.02
- Emax pERK1/2/Total ERK1/2, CP55,940 ([15]; 1 nM-10 μM CP55,940 + 1 μM NAM): 0.33 ± 0.02
- Emax, ERK (pathway ligand bias summary) [16]: 0.32 ± 0.01
- EC50 [17]: 410 nM
- [3H]SR141716A binding at 10 μM ([17]; 10 μM): did not completely abrogate
- fold greater potency than Org27569 as inhibitor of [3H]SR141716A binding ([17]; EC50 ratio): ~ 6 fold
- Emax ([17]; read-out: Emax, [3H]SR141716A binding): 22.6%
